{
  "source": "paper PMC7156724",
  "about": "“Potent BRD4 inhibitor suppresses cancer cell-macrophage interaction” (Nature Communications, 2020)",
  "key": {"[1]": {"assay": "In vivo pharmacokinetics study, mouse", "conditions": "male, BALB/c nude, plasma", "procedure": "(§1) 4–6 weeks old female BALB/c nude mice were used for most experiments, with the exception of 6–8 weeks old female C57BL/6 mice were used for B16F10 experiments, and 6–8 weeks old male BALB/c nude mice and SD rats were used for pharmacokinetic experiments. All animals were purchased from Shanghai SIPPR-Bk Lab Animal Co., Ltd. All animals were housed under a regimen of 12 h light/12 h dark cycles and specific pathogen-free conditions. 5×10^6 NCI-H526, ES-2, MDA-MB231, A2780, A375, B16F10, and TMD-8 cells (0.1 ml) were injected subcutaneously into female nude mice. The melanoma patient-derived xenograft model was derived from a human melanoma sample (BRAF, NARS and NF1 wild type, and p53 mutant) removed from a patient in Xiangya Hospital. Surgically removed tumor fragments were implanted subcutaneously into female NSG mice. When the tumors grew to ~1000 mm^3, they were harvested and cryopreserved or immediately re-implanted for expansion or experiments. Mouse body weight and tumor sizes were measured every 3 days. Once the tumors grew to 150–200 mm^3, mice were treated with the compounds as described in the Figures. 1 × 10^6 A2780 cells (1 ml) were injected into the abdominal cavity of nude mice. Ascitic volume and tumor weight were measured by an electronic balance. All the procedures were evaluated and approved by the Institutional Animal Care and Use Committee of Central South University and Yale University.\nSupplementary Figure 7. Pharmacokinetic profile of NHWD-870 using mouse and rat models.\n(a,b) Plasma concentrations of NHWD-870 in healthy (a) mouse and (b) rat after intravenous (IV, 1.75 mg/kg for mouse and 1 mg/kg for rat) and oral (PO, 5 mg/kg) administration. Values shown on the right panels are mean ± SEM from 3 different animals. (c,d) Mean concentrations of NHWD-870 in the lungs (c) and tumors (d) of H526 xenograft model at the indicated hours after oral administration of 3 mg/kg NHWD-870 and BMS-98615821 on day 21. These mice were administrated the indicated drug daily for 21 days. Data are represented as mean ± SEM of 3 independent experiments. Source data are provided as a Source Data file. […]\n9. In vivo pharmacokinetics study. Mouse and SD rat models were used to evaluate pharmacokinetic property of NHWD-870. NHWD-870 was administrated […]\nConcentration of drugs in plasma, lung and tumor tissues were measured for the indicated time. […]"}, "MDA-MB231 TNBC": {"tested_on": "MDA-MB231 TNBC", "assay": "MDA-MB231 TNBC xenograft growth", "type": "in vivo, mouse", "parameters": "MDA-MB231 tumor size (Sup Fig.9d; quantity and unit not given): unit not given here", "procedure": "as §1\nSupplementary Figure 9. […]\nPO, oral administration; QD, once daily; BID, twice daily; D, day. (c,d) Tumor growth curves for ES2 ovarian tumor (c), MDA-MB231 breast tumor (d) bearing mice treated with the indicated compounds for 21 days. Compounds were orally administrated once daily. Data are presented as mean ± SEM from 6 different mice. p values were calculated using two-tailed, unpaired t tests.\n**, p<0.01; ***, p<0.001. Source data are provided as a Source Data file. […]"}, "[2]": {"conditions": "iv, 1.75 mg/kg, IV 1.75 mg/kg, mean of 3 mice, read-out: Plasma concentration, Mean"}, "[3]": {"conditions": "iv, 1.75 mg/kg, IV 1.75 mg/kg, individual mice, read-out: Plasma concentration"}, "[4]": {"conditions": "po, 5 mg/kg, PO 5 mg/kg, mean of 3 mice, read-out: Plasma concentration, Mean"}, "[5]": {"conditions": "po, 5 mg/kg, PO 5 mg/kg, individual mice, read-out: Plasma concentration"}},
  "note": "Values joined by “and” are separate entries in the source; they are usually repeats but may differ in a detail not shown here. Equal entries are not always repeated. Where two headings read alike, the source gives them in different places.",
  "data": [
    {"smiles": "Cc1nnn(C)c1-c1cnc2c3c4cnn(C)c4ccc3n([C@H](c3ccccc3)C3CCOCC3)c2c1", "note": "[NHWD-870]", "values": [
      {"measurement": "concentration at 0.5 h", "setting": "[1]; [2]", "result": 353, "unit": "ng/mL"},
      {"measurement": "concentration at 1 h", "setting": "[1]; [3]", "result": 417, "unit": "ng/mL"},
      {"measurement": "concentration at 1 h", "setting": "[1]; [2]", "result": 325, "unit": "ng/mL"},
      {"measurement": "concentration at 2 h", "setting": "[1]; [3]", "result": 362, "unit": "ng/mL"},
      {"measurement": "concentration at 2 h", "setting": "[1]; [2]", "result": 302, "unit": "ng/mL"},
      {"measurement": "concentration at 4 h", "setting": "[1]; [3]", "result": 190, "unit": "ng/mL"},
      {"measurement": "concentration at 4 h", "setting": "[1]; [2]", "result": 201, "unit": "ng/mL"},
      {"measurement": "concentration at 8 h", "setting": "[1]; [3]", "result": 50.2, "unit": "ng/mL"},
      {"measurement": "concentration at 8 h", "setting": "[1]; [2]", "result": 54.1, "unit": "ng/mL"},
      {"measurement": "concentration at 24 h", "setting": "[1]; [3]", "result": 0.937, "unit": "ng/mL"},
      {"measurement": "concentration at 24 h", "setting": "[1]; [2]", "result": 1.06, "unit": "ng/mL"},
      {"measurement": "half-life", "setting": "[1]; po, 5 mg/kg, PO 5 mg/kg", "result": "77.4 ± 3.3", "unit": "min"},
      {"measurement": "concentration at 0.25 h", "setting": "[1]; po, 5 mg/kg, PO 5 mg/kg, 0.25 h, mean of 3 mice, read-out: Plasma concentration, Mean", "result": 266, "unit": "ng/mL"},
      {"measurement": "concentration at 0.5 h", "setting": "[1]; [4]", "result": 382, "unit": "ng/mL"},
      {"measurement": "concentration at 1 h", "setting": "[1]; [4]", "result": 449, "unit": "ng/mL"},
      {"measurement": "concentration at 2 h", "setting": "[1]; [5]", "result": 528, "unit": "ng/mL"},
      {"measurement": "concentration at 2 h", "setting": "[1]; [4]", "result": 512, "unit": "ng/mL"},
      {"measurement": "concentration at 4 h", "setting": "[1]; [5]", "result": 299, "unit": "ng/mL"},
      {"measurement": "concentration at 4 h", "setting": "[1]; [4]", "result": 320, "unit": "ng/mL"},
      {"measurement": "concentration at 6 h", "setting": "[1]; po, 5 mg/kg, PO 5 mg/kg, 6 h, mean of 3 mice", "result": 169, "unit": "ng/mL"},
      {"measurement": "concentration at 8 h", "setting": "[1]; [4]", "result": 119, "unit": "ng/mL"},
      {"measurement": "concentration at 24 h", "setting": "[1]; [5]", "result": 1.06, "unit": "ng/mL"},
      {"measurement": "concentration at 24 h", "setting": "[1]; [4]", "result": 1.32, "unit": "ng/mL"},
      {"measurement": "bioavailability", "setting": "[1]; po, 5 mg/kg, PO 5 mg/kg, read-out: F (%), oral bioavailability", "result": "70.8 ± 5.8", "unit": "%"},
      {"measurement": "MDA-MB231 tumor size (Sup Fig.9d; quantity and unit not given)", "setting": "MDA-MB231 TNBC; 1mg/kg p.o. QD x 21D, day 0, individual animals", "result": "279.42 and 121.19 and 223.85 and 207.81 and 142.25 and 116.01"},
      {"measurement": "MDA-MB231 tumor size (Sup Fig.9d; quantity and unit not given)", "setting": "MDA-MB231 TNBC; 1mg/kg p.o. QD x 21D, day 3, individual animals", "result": "342.36 and 216.69 and 301.84 and 236.23 and 182.39 and 129.14"},
      {"measurement": "MDA-MB231 tumor size (Sup Fig.9d; quantity and unit not given)", "setting": "MDA-MB231 TNBC; 1mg/kg p.o. QD x 21D, day 7, individual animals", "result": "454.4 and 329.94 and 520.71 and 309.24 and 176.3 and 192.56"},
      {"measurement": "MDA-MB231 tumor size (Sup Fig.9d; quantity and unit not given)", "setting": "MDA-MB231 TNBC; 1mg/kg p.o. QD x 21D, day 10, individual animals", "result": "681 and 486.76 and 545.06 and 482.5 and 217.9 and 268.16"},
      {"measurement": "MDA-MB231 tumor size (Sup Fig.9d; quantity and unit not given)", "setting": "MDA-MB231 TNBC; 1mg/kg p.o. QD x 21D, day 14, individual animals", "result": "889.946 and 639.335 and 784.126 and 538.093 and 253.479 and 345.127"},
      {"measurement": "MDA-MB231 tumor size (Sup Fig.9d; quantity and unit not given)", "setting": "MDA-MB231 TNBC; 1mg/kg p.o. QD x 21D, day 17, individual animals", "result": "973.96 and 796.38 and 1110.48 and 713.45 and 300.77 and 432.71"},
      {"measurement": "MDA-MB231 tumor size (Sup Fig.9d; quantity and unit not given)", "setting": "MDA-MB231 TNBC; 1mg/kg p.o. QD x 21D, day 21, individual animals", "result": "1038.8 and 904.78 and 1426.58 and 1004.43 and 413.96 and 626.93"},
      {"measurement": "MDA-MB231 tumor size (Sup Fig.9d; quantity and unit not given)", "setting": "MDA-MB231 TNBC; 3mg/kg p.o. QD x 21D, day 0, individual animals", "result": "118.16 and 163.39 and 132.22 and 223.66 and 238.14 and 193.21"},
      {"measurement": "MDA-MB231 tumor size (Sup Fig.9d; quantity and unit not given)", "setting": "MDA-MB231 TNBC; 3mg/kg p.o. QD x 21D, day 3, individual animals", "result": "111.38 and 180.22 and 170.04 and 238.46 and 333.75 and 199.82"},
      {"measurement": "MDA-MB231 tumor size (Sup Fig.9d; quantity and unit not given)", "setting": "MDA-MB231 TNBC; 3mg/kg p.o. QD x 21D, day 7, individual animals", "result": "184.36 and 185.35 and 194.47 and 370.49 and 294.2 and 222.64"},
      {"measurement": "MDA-MB231 tumor size (Sup Fig.9d; quantity and unit not given)", "setting": "MDA-MB231 TNBC; 3mg/kg p.o. QD x 21D, day 10, individual animals", "result": "223.77 and 229.36 and 217.46 and 450.48 and 331.57 and 251.49"},
      {"measurement": "MDA-MB231 tumor size (Sup Fig.9d; quantity and unit not given)", "setting": "MDA-MB231 TNBC; 3mg/kg p.o. QD x 21D, day 14, individual animals", "result": "325.631 and 331.431 and 303.664 and 453.402 and 392.114 and 282.288"},
      {"measurement": "MDA-MB231 tumor size (Sup Fig.9d; quantity and unit not given)", "setting": "MDA-MB231 TNBC; 3mg/kg p.o. QD x 21D, day 17, individual animals", "result": "488.17 and 465.37 and 409.38 and 652.35 and 540.67 and 429.56"},
      {"measurement": "MDA-MB231 tumor size (Sup Fig.9d; quantity and unit not given)", "setting": "MDA-MB231 TNBC; 3mg/kg p.o. QD x 21D, day 21, individual animals", "result": "586.22 and 557.41 and 558.02 and 759.6 and 643.46 and 481.28"},
      {"measurement": "effect on tumor growth", "setting": "MDA-MB231 TNBC; MDA-MB231 TNBC, oral once daily 21 days", "result": "strong tumor-suppressive effects"}
    ]}
  ]
}
